# How the values were obtained:
# [1] = system: Paeniclostridium sordellii; assay: Antimicrobial activity against Clostridium sordellii by Wadsworth agar dilution method; format: functional; conditions: Paraclostridium sordellii
# [2] = Antimicrobial activity against Bifidobacterium infantis by Wadsworth agar dilution method; format: functional, Bifidobacterium longum subsp. infantis; conditions: Bifidobacterium longum
# Bifidobacterium longum = assay: Antimicrobial activity against Bifidobacterium longum by Wadsworth agar dilution method; format: functional
# [3] = Antimicrobial activity against Bifidobacterium pseudocatenulatum by Wadsworth agar dilution method; format: functional
# Collinsella aerofaciens = assay: Antimicrobial activity against Colinsella aerofaciens by Wadsworth agar dilution method; format: functional
# Eubacterium biforme = assay: Antimicrobial activity against Eubacterium biforme by Wadsworth agar dilution method; format: functional; conditions: Holdemanella biformis
# Eubacterium cylindroides = assay: Antimicrobial activity against Eubacterium cylindroides by Wadsworth agar dilution method; format: functional; conditions: Faecalitalea cylindroides
# Eubacterium rectale = assay: Antimicrobial activity against Eubacterium rectale by Wadsworth agar dilution method; format: functional; conditions: Agathobacter rectalis
# Holdemania filiformis = assay: Antimicrobial activity against Holdemania filiformis by Wadsworth agar dilution method; format: functional
# Lactobacillus jensenii = assay: Antimicrobial activity against Lactobacillus jensenii by Wadsworth agar dilution method; format: functional
# [4] = system: Lactiplantibacillus plantarum; assay: Antimicrobial activity against Lactobacillus plantarum by Wadsworth agar dilution method; format: functional
# [5] = system: Limosilactobacillus reuteri; assay: Antimicrobial activity against Lactobacillus reuteri by Wadsworth agar dilution method; format: functional
# [6] = system: Lacticaseibacillus rhamnosus; assay: Antimicrobial activity against Lactobacillus rhamnosus by Wadsworth agar dilution method; format: functional
# Lactobacillus sp. = assay: Antimicrobial activity against Lactobacillus sp. by Wadsworth agar dilution method; format: functional
# Cutibacterium acnes = assay: Antimicrobial activity against Propionibacterium acnes by Wadsworth agar dilution method; format: functional
# [7] = system: Propionibacterium propionicum; assay: Antimicrobial activity against Propionibacterium propionicum by Wadsworth agar dilution method; format: functional; conditions: Arachnia propionica
# Anaerococcus tetradius = assay: Antimicrobial activity against Anaerococcus tetradius by Wadsworth agar dilution method; format: functional
# Peptoniphilus harei = assay: Antimicrobial activity against Peptoniphilus harei by Wadsworth agar dilution method; format: functional
# [8] = system: Peptostreptococcus anaerobius; assay: Antimicrobial activity against Peptostreptococcus anaerobius by Wadsworth agar dilution method; format: functional
# Parvimonas micra = assay: Antimicrobial activity against Peptostreptococcus micros by Wadsworth agar dilution method; format: functional
# [9] = system: Ruminococcus flavefaciens; assay: Antimicrobial activity against Ruminococcus flavefaciens by Wadsworth agar dilution method; format: functional
# Ruminococcus obeum = assay: Antimicrobial activity against Ruminococcus obeum by Wadsworth agar dilution method; format: functional; conditions: Blautia obeum
# Blautia producta = assay: Antimicrobial activity against Ruminococcus productus by Wadsworth agar dilution method; format: functional
# Ruminococcus torques = assay: Antimicrobial activity against Ruminococcus torques by Wadsworth agar dilution method; format: functional; conditions: Mediterraneibacter torques
smiles,measurement,setting,value
NC[C@@H]1O[C@H](O[C@H]2[C@@H](O)[C@H](O[C@@H]3[C@@H](O)[C@H](N)C[C@H](N)[C@H]3O[C@H]3O[C@H](CN)[C@@H](O)[C@H](O)[C@H]3N)O[C@@H]2CO)[C@H](N)[C@@H](O)[C@@H]1O [FRAMYCETIN],MIC90,[1],1020 µg/mL
same,MIC50,[2],128 µg/mL
same,MIC90,[2],1020 µg/mL
same,MIC50,Bifidobacterium longum,128 µg/mL
same,MIC90,Bifidobacterium longum,1020 µg/mL
same,MIC50,[3],128 µg/mL
same,MIC90,[3],1020 µg/mL
same,MIC50,Collinsella aerofaciens,128 µg/mL
same,MIC90,Collinsella aerofaciens,1020 µg/mL
same,MIC50,Eubacterium biforme,128 µg/mL
same,MIC90,Eubacterium biforme,1020 µg/mL
same,MIC50,Eubacterium cylindroides,128 µg/mL
same,MIC90,Eubacterium cylindroides,1020 µg/mL
same,MIC50,Eubacterium rectale,128 µg/mL
same,MIC90,Eubacterium rectale,1020 µg/mL
same,MIC50,Holdemania filiformis,128 µg/mL
same,MIC90,Holdemania filiformis,1020 µg/mL
same,MIC50,Lactobacillus jensenii,128 µg/mL
same,MIC90,Lactobacillus jensenii,1020 µg/mL
same,MIC50,[4],128 µg/mL
same,MIC90,[4],1020 µg/mL
same,MIC50,[5],128 µg/mL
same,MIC90,[5],1020 µg/mL
same,MIC50,[6],128 µg/mL
same,MIC90,[6],1020 µg/mL
same,MIC50,Lactobacillus sp.,128 µg/mL
same,MIC90,Lactobacillus sp.,1020 µg/mL
same,MIC50,Cutibacterium acnes,128 µg/mL
same,MIC90,Cutibacterium acnes,1020 µg/mL
same,MIC50,[7],128 µg/mL
same,MIC90,[7],1020 µg/mL
same,MIC50,Anaerococcus tetradius,128 µg/mL
same,MIC90,Anaerococcus tetradius,512 µg/mL
same,MIC50,Peptoniphilus harei,128 µg/mL
same,MIC90,Peptoniphilus harei,512 µg/mL
same,MIC50,[8],128 µg/mL
same,MIC90,[8],512 µg/mL
same,MIC50,Parvimonas micra,128 µg/mL
same,MIC90,Parvimonas micra,512 µg/mL
same,MIC50,[9],128 µg/mL
same,MIC90,[9],512 µg/mL
same,MIC50,Ruminococcus obeum,128 µg/mL
same,MIC90,Ruminococcus obeum,512 µg/mL
same,MIC50,Blautia producta,128 µg/mL
same,MIC90,Blautia producta,512 µg/mL
same,MIC50,Ruminococcus torques,128 µg/mL
same,MIC90,Ruminococcus torques,512 µg/mL
